In patent publication US20260308186A1, “STAT DEGRADERS AND USES THEREOF” (Recludix Pharma, Inc., priority 2023, published 2026):
Like-named read-outs stand apart in the source and are kept apart here.

Tests used:
STAT6 = target: T1, STAT6 (Homo sapiens, UniProt P42226); test: STAT6 Fluorescence Polarization (FP) Assay; assay type: binding
T1 construct: Recombinant STAT6 protein (STAT6(W123-T658))
T1 sequence (P42226 123-658): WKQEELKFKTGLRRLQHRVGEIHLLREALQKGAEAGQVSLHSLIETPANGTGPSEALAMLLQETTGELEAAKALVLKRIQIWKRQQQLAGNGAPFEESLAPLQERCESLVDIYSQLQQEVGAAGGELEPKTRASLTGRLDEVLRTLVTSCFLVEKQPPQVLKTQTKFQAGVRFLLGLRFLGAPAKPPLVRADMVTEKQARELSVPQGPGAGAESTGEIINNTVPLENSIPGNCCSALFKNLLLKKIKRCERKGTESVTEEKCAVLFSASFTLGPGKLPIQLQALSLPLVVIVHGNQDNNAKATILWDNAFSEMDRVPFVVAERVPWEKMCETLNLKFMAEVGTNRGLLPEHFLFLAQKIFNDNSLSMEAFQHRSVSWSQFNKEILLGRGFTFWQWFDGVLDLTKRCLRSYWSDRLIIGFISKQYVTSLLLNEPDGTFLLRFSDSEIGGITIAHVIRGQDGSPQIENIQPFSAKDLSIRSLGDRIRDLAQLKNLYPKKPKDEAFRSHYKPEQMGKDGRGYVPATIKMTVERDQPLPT
Method in brief: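 STAT6(W123-T658) at 250 nM plus 2 nM 5-FAM phosphotyrosine peptide probe in HEPES pH 7.4 buffer with 2 mM DTT, 1% DMSO final. Polarization read after 45 min at room temperature. IC50 from nonlinear regression of mP against log concentration.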

STAT3 = target: T2, STAT3 (Homo sapiens, UniProt P40763); test: STAT3 Fluorescence Polarization (FP) Assay; assay type: binding
T2 construct: Recombinant STAT3 protein (STAT3(G127-1722))

pSTAT3 = target: T3, pSTAT3 (Homo sapiens, UniProt P40763); test: MSD-pSTAT-PBMC Assay, pSTAT3 (IL-6 stimulated PBMC); assay type: cell-based
T3 construct: pY705-STAT3 MSD read-out
Excerpt: Cryopreserved Peripheral Blood Mononuclear Cells (PBMC) are from AllCells. Recombinant Human IL-4 and IL-6 are from Peprotech. Mouse monoclonal anti-STAT3 antibody, rabbit monoclonal anti-pY705-STAT3 antibody, rabbit monoclonal Anti-pY641-STAT6 antibody, and lysis buffer are from Cell Signaling Technology (CST). Mouse monoclonal anti-STAT6 antibody is from BioLegend. Assay plates, blocker, and anti-rabbit secondary antibody are from Meso Scale Discovery (MSD).
Cryopreserved PBMCs were thawed out and allowed to recover overnight in IMDM+10% heat-inactivated FBS prior to plating 50,000 (STAT3) or 25,000 (STAT6) cells per well in 96-well U-bottom tissue culture plates. Cells were treated with compound for 3 hrs. then stimulated with 10 ng/mL IL-6 (STAT3) or 1 ng/mL IL-4 (STAT6) for 10 min. Cells were then spun down and washed with ice-cold PBS prior to lysing the cell pellet with 1× lysis buffer (CST) with 1×HALT protease and phosphatase inhibitor cocktail (Thermo). Lysates were transferred to and incubated overnight at 4° C. with shaking in QuickPlex 96-well high bind assay plates (MSD) pre-coated overnight with 30 μL per well of 0.6 μg/mL mouse monoclonal anti-STAT3 antibody (STAT3) or 2 μg/mL mouse monoclonal anti-STAT6 antibody (STAT6) in 1×PBS, and pre-blocked for 1 hour with 3% Blocker-A (MSD). Captured protein in the assay plates were then washed and probed with 25 μL per well of 0.25 μg/ml rabbit monoclonal anti-pY705-STAT3 antibody (STAT3) or 0.18 μg/ml rabbit monoclonal Anti-pY641-STAT6 antibody (STAT6) in 1% Blocker-A for 1 hour at room temperature with shaking, then washed and probed with 25 ul per well of 1 ug/ml Sulfo-TAG Labeled Goat Anti-Rabbit Antibody (MSD) in 1% Blocker-A for 1 hour at room temperature with shaking. Assay plates were then washed and 150 μL of 1× Read Buffer-T (MSD) was added to each well prior to reading on an SQ120 MSD Plate Reader. Assay signal from each sample was subtracted by the signal from unstimulated control wells and normalized to DMSO control wells. IC50 values were calculated using Graph Pad Prism Dose-Response Nonlinear Regression with variable slope. For both pSTAT3 and pSTAT6 A=≤100 nM; B=>100-1000 nM; C=>1000-3000 nM; and D=>3 μM.

pSTAT6 = target: T4, pSTAT6 (Homo sapiens, UniProt P42226); test: MSD-pSTAT-PBMC Assay, pSTAT6 (IL-4 stimulated PBMC); assay type: cell-based
T4 construct: pY641-STAT6 MSD read-out
T4 sequence (P42226 1-847): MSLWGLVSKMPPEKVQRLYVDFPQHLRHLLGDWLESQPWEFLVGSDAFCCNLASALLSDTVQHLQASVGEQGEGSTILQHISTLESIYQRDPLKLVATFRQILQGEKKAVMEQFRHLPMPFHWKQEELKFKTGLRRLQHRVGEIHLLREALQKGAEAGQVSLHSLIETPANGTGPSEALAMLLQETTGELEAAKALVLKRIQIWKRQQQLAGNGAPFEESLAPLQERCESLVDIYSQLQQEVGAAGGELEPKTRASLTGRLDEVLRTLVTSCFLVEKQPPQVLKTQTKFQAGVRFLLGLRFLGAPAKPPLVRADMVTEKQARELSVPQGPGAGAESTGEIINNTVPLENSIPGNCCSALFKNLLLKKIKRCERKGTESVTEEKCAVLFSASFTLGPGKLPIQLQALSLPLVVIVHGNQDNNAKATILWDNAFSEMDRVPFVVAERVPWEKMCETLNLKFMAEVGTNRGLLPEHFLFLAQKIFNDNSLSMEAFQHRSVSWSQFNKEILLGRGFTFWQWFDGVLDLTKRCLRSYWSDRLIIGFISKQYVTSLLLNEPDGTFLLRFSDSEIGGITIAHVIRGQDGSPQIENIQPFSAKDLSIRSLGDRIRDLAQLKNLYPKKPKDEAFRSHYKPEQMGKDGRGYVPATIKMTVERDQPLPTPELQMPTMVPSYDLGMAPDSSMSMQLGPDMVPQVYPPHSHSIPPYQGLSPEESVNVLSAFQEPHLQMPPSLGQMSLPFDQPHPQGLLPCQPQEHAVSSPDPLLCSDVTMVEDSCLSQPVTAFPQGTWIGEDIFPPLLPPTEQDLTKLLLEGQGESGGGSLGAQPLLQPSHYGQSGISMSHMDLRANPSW
Method in brief: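 Human PBMC were recovered overnight, treated 3 h with compound, then stimulated for 10 min with 10 ng/mL IL-6 (pSTAT3) or 1 ng/mL IL-4 (pSTAT6). Lysates were read by MSD sandwich immunoassay, with total STAT capture and pY705-STAT3 or pY641-STAT6 detection. Signal minus unstimulated wells was normalized to DMSO, and IC50 came from a variable-slope fit.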

[1] = read-out: pSTAT3 IC50, compound 3 hrs, then 10 ng/mL IL-6 for 10 min, pY705-STAT3
[2] = read-out: pSTAT6 IC50, compound 3 hrs, then 1 ng/mL IL-4 for 10 min, pY641-STAT6
[3] = recombinant STAT6(W123-T658) 250 nM, probe 5-FAM-Ap[…]-NH2 2 nM, 45 min, room temperature, read-out: STAT6 FP IC50
[4] = recombinant STAT3 25 nM, probe 5-FAM-GpYLPQTV-NH2 2 nM, 45 min, room temperature, read-out: STAT3 FP IC50
[5] = compound 3 hrs, then 10 ng/mL IL-6 for 10 min, pY705-STAT3, read-out: pSTAT3 IC50
[6] = compound 3 hrs, then 1 ng/mL IL-4 for 10 min, pY641-STAT6, read-out: pSTAT6 IC50

T3 sequence (P40763 whole entry): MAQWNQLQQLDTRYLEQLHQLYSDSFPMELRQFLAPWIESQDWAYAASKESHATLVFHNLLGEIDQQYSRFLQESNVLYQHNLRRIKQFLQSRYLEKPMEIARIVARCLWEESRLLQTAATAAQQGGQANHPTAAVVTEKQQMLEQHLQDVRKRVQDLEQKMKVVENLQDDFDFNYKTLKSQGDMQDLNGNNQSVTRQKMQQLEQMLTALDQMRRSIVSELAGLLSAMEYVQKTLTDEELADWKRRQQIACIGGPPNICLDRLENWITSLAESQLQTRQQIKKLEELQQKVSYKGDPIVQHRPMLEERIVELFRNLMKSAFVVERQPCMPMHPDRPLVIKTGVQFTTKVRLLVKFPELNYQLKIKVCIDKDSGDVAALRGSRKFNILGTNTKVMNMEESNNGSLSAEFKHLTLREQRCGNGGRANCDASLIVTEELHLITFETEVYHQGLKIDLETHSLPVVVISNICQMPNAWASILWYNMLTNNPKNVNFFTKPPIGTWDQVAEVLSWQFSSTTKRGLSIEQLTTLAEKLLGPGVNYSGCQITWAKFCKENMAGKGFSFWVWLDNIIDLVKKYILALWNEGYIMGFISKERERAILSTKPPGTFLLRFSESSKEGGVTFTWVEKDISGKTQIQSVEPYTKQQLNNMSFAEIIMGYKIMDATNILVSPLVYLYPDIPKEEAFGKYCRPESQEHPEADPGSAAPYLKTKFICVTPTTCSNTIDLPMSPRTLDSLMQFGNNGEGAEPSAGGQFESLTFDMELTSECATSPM
T2 sequence (P40763 127-722 limits assumed): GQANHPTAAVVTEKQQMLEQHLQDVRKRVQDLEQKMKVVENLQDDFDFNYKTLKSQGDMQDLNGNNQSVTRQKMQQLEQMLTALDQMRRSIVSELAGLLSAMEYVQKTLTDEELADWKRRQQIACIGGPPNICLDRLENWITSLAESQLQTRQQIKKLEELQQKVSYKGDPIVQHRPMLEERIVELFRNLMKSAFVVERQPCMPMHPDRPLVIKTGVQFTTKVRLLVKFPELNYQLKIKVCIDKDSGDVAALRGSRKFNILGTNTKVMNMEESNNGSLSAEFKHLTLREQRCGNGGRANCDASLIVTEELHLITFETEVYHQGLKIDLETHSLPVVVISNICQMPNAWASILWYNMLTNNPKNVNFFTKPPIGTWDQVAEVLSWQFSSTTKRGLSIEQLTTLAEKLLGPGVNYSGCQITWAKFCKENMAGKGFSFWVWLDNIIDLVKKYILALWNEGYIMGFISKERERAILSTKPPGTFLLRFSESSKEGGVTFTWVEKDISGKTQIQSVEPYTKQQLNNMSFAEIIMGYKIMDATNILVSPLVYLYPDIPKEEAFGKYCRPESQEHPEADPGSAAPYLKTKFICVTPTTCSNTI

IC50 (STAT6; [3]) [nM]	IC50 (STAT3; [4]) [nM]	IC50 (pSTAT3; [5]) [µM]	IC50 (pSTAT6; [6]) [µM]	SMILES	IC50 (STAT6) [nM]	IC50 (STAT3) [nM]	IC50 (pSTAT3; [1]) [µM]	IC50 (pSTAT6; [2]) [µM]
–	–	–	–	CN(C(=O)[C@@H]1CC[C@@H]2CCN(C(=O)CCCCCC#Cc3cccc4c3CN(C3CCC(=O)NC3=O)C4=O)C[C@H](NC(=O)c3cc4cc(C(F)(F)P(=O)(O)O)ccc4[nH]3)C(=O)N21)c1ccccc1 (stereo partly drawn) [Compound 1, [(2-{[(5S,8S,10aR)-3-{8-[2-(2,6-dioxopiperidin-3-yl)-1-oxo-2,3-dihydro-1H-isoindol-4-yl]oct-7-ynoyl}-8-[methyl(phenyl)carbamoyl]-6-oxo-decahydropyrrolo[1,2-a][1,5]diazocin-5-yl]carbamoyl}-1H-indol-5-yl)difluoromethyl]phosphonic acid]	300 to 3000	1000 to 10000	> 3	> 3
–	–	–	–	CC(=O)N1CC[C@H]2CC[C@@H](C(=O)Nc3ccc(-c4ccc(NC(=O)CCCCCC#Cc5cccc6c5CN(C5CCC(=O)NC5=O)C6=O)cc4)cc3)N2C(=O)[C@@H](NC(=O)c2cc3cc(C(F)(F)P(=O)(O)O)ccc3[nH]2)C1 (stereo partly drawn) [Compound 3, ((2-(((5S,8S,10aR)-3-acetyl-8-((4′-(8-(2-(2,6-dioxopiperidin-3-yl)-1-oxoisoindolin-4-yl)oct-7-ynamido)-[1,1′-biphenyl]-4-yl)carbamoyl)-6-oxodecahydropyrrolo[1,2-a][1,5]diazocin-5-yl)carbamoyl)-1H-indol-5-yl)difluoromethyl)phosphonic acid]	300 to 3000	100 to 1000	> 3	> 3
3000 to 30000	< 100	> 3	> 3	O=C1CCC(N2Cc3c(C#CCCCCCC(=O)N4CC[C@H]5CC[C@@H](C(=O)N6CC(c7cccnc7)C6)N5C(=O)[C@@H](NC(=O)c5cc6cc(C(F)(F)P(=O)(O)O)ccc6s5)C4)cccc3C2=O)C(=O)N1 (stereo partly drawn) [Compound 5, ((2-(((5S,8S,10aR)-3-(8-(2-(2,6-dioxopiperidin-3-yl)-1-oxoisoindolin-4-yl)oct-7-ynoyl)-6-oxo-8-(3-(pyridin-3-yl)azetidine-1-carbonyl)decahydropyrrolo[1,2-a][1,5]diazocin-5-yl)carbamoyl)benzo[b]thiophen-5-yl)difluoromethyl)phosphonic acid]	–	–	–	–
< 300	1000 to 10000	> 3	1 to 3	N#CC1CN(C(=O)C2CCC3CCN(C(=O)CCCCCC#Cc4cccc5c4CN(C4CCC(=O)NC4=O)C5=O)CC(NC(=O)c4cc5cc(C(F)(F)P(=O)(O)O)ccc5s4)C(=O)N32)CC1c1ccccc1 [Compound 6, ((2-(((5S,8S,10aR)-8-((rel-3S,4R)-3-cyano-4-phenylpyrrolidine-1-carbonyl)-3-(8-(2-(2,6-dioxopiperidin-3-yl)-1-oxoisoindolin-4-yl)oct-7-ynoyl)-6-oxodecahydropyrrolo[1,2-a][1,5]diazocin-5-yl)carbamoyl)benzo[b]thiophen-5-yl)difluoromethyl)phosphonic acid]	–	–	–	–
–	–	–	–	Cc1ccc2[nH]nc(C(=O)N3CC[C@H]4CC[C@@H](C(=O)NCCCCCCCCC(=O)N[C@H](C(=O)N5C[C@H](O)C[C@H]5C(=O)N[C@@H](C)c5ccc(-c6scnc6C)cc5)C(C)(C)C)N4C(=O)[C@@H](NC(=O)c4ccc5ccc(C(F)(F)P(=O)(O)O)cc5c4)C3)c2c1 [Compound 7]	< 300	1000 to 10000	> 3	> 3
–	–	–	–	Cc1ccc2[nH]nc(C(=O)N3CC[C@H]4CC[C@@H](C(=O)NCCCCCCC#Cc5cccc6c5CN(C5CCC(=O)NC5=O)C6=O)N4C(=O)[C@@H](NC(=O)c4ccc5ccc(C(F)(F)P(=O)(O)O)cc5c4)C3)c2c1 (stereo partly drawn) [Compound 9, ((7-(((5S,8S,10aR)-8-((8-(2-(2,6-dioxopiperidin-3-yl)-1-oxoisoindolin-4-yl)oct-7-yn-1-yl)carbamoyl)-3-(5-methyl-1H-indazole-3-carbonyl)-6-oxodecahydropyrrolo[1,2-a][1,5]diazocin-5-yl)carbamoyl)naphthalen-2-yl)difluoromethyl)phosphonic acid]	< 300	1000 to 10000	> 3	1 to 3
